# In patent publication US9522888B2, “Substituted bicyclic compounds” (BRISTOL-MYERS SQUIBB COMPANY, priority 2014, dated 2016):
# Like-named read-outs stand apart in the source and are kept apart here.
# Legend:
# [1] = target: S1P1 (membranes prepared from S1P1/CHO cells) (Homo sapiens (Human), UniProt P21453); assay: Receptor [35S] GTPγS binding assay (S1P1 GTPγS); type: biochemical; conditions: for activity as an agonist of S1P1: GTPγS S1P1 binding assay, result in words
# Protocol: (§1) Receptor [^35S] GTPγS Binding Assays: (S1P1 GTPγS/S1P3 GTPγS)
# Compounds were loaded in a 384 Falcon v-bottom plate (0.5 μl/well in a 11 point, 3-fold dilution). Membranes prepared from S1P1/CHO cells or EDG3-Gal5-bla HEK293T cells (EDG3 equivalent S1P3) were added to the compound plate (40 μl/well, final protein 3 μg/well) with MULTIDROP®. [^35S] GTP (1250 Ci/mmol, Perkin Elmer) was diluted in assay buffer: 20 mM HEPES, pH7.5, 10 mM MgCl2, 150 mM NaCl, 1 mM EGTA (ethylene glycol tetraacetic acid), 1 mM DTT (Dithiothreitol), 10 μM GDP, 0.1% fatty acid free BSA, and 10 μg/ml Saponin to 0.4 nM. 40 μl of the [^35S] GTP solution was added to the compound plate with a final concentration of 0.2 nM. The reaction was kept at room temperature for 45 min. At the end of incubation, all the mixtures in the compound plate were transferred to Millipore 384-well FB filter plates via the VELOCITY11® Vprep liquid handler. The filter plate was washed with water 4 times by using the manifold Embla plate washer and dried at 60° C. for 45 min. MicroScint 20 scintillation fluid (30 μl) was added to each well for counting on the Packard TOPCOUNT®. […]
# [2] = target: human S1P1 (Homo sapiens (Human), UniProt P21453); assay: S1P1 binding assay (33P-S1P radioligand competition, CHO cell membranes)
# Chain of human S1P1 (P21453 whole entry): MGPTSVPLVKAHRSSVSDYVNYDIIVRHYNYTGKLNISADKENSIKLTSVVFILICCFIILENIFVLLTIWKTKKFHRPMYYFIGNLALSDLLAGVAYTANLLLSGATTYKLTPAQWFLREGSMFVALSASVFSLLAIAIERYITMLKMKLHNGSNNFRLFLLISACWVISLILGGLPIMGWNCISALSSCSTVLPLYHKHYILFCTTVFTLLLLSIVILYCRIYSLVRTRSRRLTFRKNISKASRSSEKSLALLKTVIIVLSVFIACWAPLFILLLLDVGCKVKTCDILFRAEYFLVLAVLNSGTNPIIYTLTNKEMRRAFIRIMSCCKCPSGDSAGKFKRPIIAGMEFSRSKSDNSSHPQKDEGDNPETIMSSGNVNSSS
# Protocol: Membranes were prepared from CHO cells expressing human S1P1. Cells pellets (1×10^9 cells/pellet) were suspended in buffer containing 20 mM HEPES (4-(2-hydroxyethyl)-1-piperazineethanesulfonic acid), pH 7.5, 50 mM NaCl, 2 mM EDTA (Ethylenediaminetetraacetic acid) and Protease Inhibitor cocktail (Roche), and disrupted on ice using the Polytron homogenizer. The homogenate was centrifuged at 20,000 rpm (48,000 g) and the supernatant was discarded. The membrane pellets were resuspended in buffer containing 50 mM HEPES, pH 7.5, 100 mM NaCl, 1 mM MgCl2, 2 mM EDTA and stored in aliquots at −80° C. after protein concentration determination.
# [3] = target: S1P3 (membranes prepared from EDG3-Gal5-bla HEK293T cells) (Homo sapiens (Human), UniProt Q99500); assay: Receptor [35S] GTPγS binding assay (S1P3 GTPγS); type: biochemical
# Chain of S1P3 (membranes prepared from EDG3-Gal5-bla HEK293T cells) (Q99500 whole entry): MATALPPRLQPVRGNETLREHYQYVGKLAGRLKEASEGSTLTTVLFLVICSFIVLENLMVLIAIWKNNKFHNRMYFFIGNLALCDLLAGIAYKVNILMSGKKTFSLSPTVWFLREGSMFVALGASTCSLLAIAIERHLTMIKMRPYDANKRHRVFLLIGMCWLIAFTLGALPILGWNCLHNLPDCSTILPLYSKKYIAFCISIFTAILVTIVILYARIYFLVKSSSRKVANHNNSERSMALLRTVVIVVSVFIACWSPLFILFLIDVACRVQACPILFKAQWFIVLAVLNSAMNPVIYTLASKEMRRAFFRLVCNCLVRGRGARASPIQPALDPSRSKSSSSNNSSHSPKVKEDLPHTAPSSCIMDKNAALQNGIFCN
# Protocol: as §1
# Compounds were loaded in a 384 Falcon v-bottom plate (0.5 μl/well in a 11 point, 3-fold dilution). Membranes prepared from S1P1/CHO cells or EDG3-Gal5-bla HEK293T cells (EDG3 equivalent S1P3) were added to the compound plate (40 μl/well, final protein 3 μg/well) with MULTIDROP®. [^35S] GTP (1250 Ci/mmol, Perkin Elmer) was diluted in assay buffer: 20 mM HEPES, pH7.5, 10 mM MgCl2, 150 mM NaCl, 1 mM EGTA (ethylene glycol tetraacetic acid), 1 mM DTT (Dithiothreitol), 10 μM GDP, 0.1% fatty acid free BSA, and 10 μg/ml Saponin to 0.4 nM. 40 μl of the [^35S] GTP solution was added to the compound plate with a final concentration of 0.2 nM. The reaction was kept at room temperature for 45 min. At the end of incubation, all the mixtures in the compound plate were transferred to Millipore 384-well FB filter plates via the VELOCITY11® Vprep liquid handler. The filter plate was washed with water 4 times by using the manifold Embla plate washer and dried at 60° C. for 45 min. MicroScint 20 scintillation fluid (30 μl) was added to each well for counting on the Packard TOPCOUNT®.
# A smaller value for GTPγS S1P1 EC50 value indicated greater activity for the compound in the GTPγS S1P1 binding assay. A larger value for the GTPγS S1P3 EC50 value indicated less activity in the GTPγS S1P3 binding assay. […] Thus the compounds of the present invention may be used in treating, preventing, or curing various S1P1 receptor-related conditions while reducing or minimizing the side effects due to S1P3 activity. The selectivity of the compounds of the present invention indicate their potential use in treating, preventing, or curing autoimmune and inflammatory diseases such as multiple sclerosis, rheumatoid arthritis, inflammatory bowel disease, lupus, psoriasis, or vascular diseases, while reducing or minimizing possible side effects due to S1P3 activity. Other potential uses of the compounds of the present invention include minimizing or reducing rejection of transplanted organs, while reducing or minimizing side effects due to S1P3 activity.
# [4] = [35S]GTPγS, S1P1/CHO cell membranes, read-out: GTPγS S1P1 EC50
# [5] = 33P-S1P competition, membranes of CHO cells expressing human S1P1, read-out: S1P1 Binding IC50
# [6] = [35S]GTPγS, EDG3-Gal5-bla HEK293T cell membranes, read-out: GTPγS S1P3 EC50
# [7] = phosphate examples, read-out: S1P1 GTPγS
# [8] = phosphate examples, read-out: S1P1 Binding
# [9] = phosphate examples, read-out: S1P3 GTPγS
# Chain of S1P1 (membranes prepared from S1P1/CHO cells) (P21453 whole entry): as the sequence (P21453 whole entry) above
smiles,measurement,setting,value
"COCCCCCC1CCc2cc([C@H]3CC[C@](N)(COP(=O)(O)O)C3)ccc2C1 (single isomer, unassigned) [Example 689]",activity as an agonist of S1P1,[1],possessed activity as an agonist of S1P1
same,EC50,[1]; [4],5.7 nM
same,IC50,[2]; [5],1.7 nM
same,selectivity over S1P3,"[3]; GTPγS S1P1 versus GTPγS S1P3, result in words",selective over S1P3
same,EC50,[3]; [6],> 2000 nM
same,EC50,"[3]; membranes prepared from EDG3-Gal5-bla HEK293T cells, read-out: GTPγS S1P3 EC50",> 2000 nM
"COCCCCCC1CCc2cc([C@H]3CC[C@](N)(COP(=O)(O)O)C3)ccc2C1 (single isomer, unassigned) [Example 690]",EC50,[1]; [4],21.4 nM
same,IC50,[2]; [5],3 nM
same,EC50,[3]; [6],> 625 nM
"COCCCCCC1CCc2cc([C@@H]3CC[C@](N)(COP(=O)(O)O)C3)ccc2C1 (single isomer, unassigned) [Example 692]",IC50,[2]; [5],2.3 nM
same,EC50,[3]; [6],> 625 nM
"COc1cccc(CCC2CCc3cc([C@H]4CC[C@](N)(COP(=O)(O)O)C4)ccc3C2)c1 (single isomer, unassigned) [Example 693]",EC50,[3]; [6],> 4160 nM
"COc1cccc(CCC2CCc3cc([C@H]4CC[C@](N)(COP(=O)(O)O)C4)ccc3C2)c1 (single isomer, unassigned) [Example 694]",EC50,[1]; [4],38.6 nM
same,EC50,[3]; [6],> 1250 nM
"CCOCCCC1CCc2cc([C@H]3CC[C@](N)(COP(=O)(O)O)C3)ccc2C1 (single isomer, unassigned) [Example 695]",EC50,[3]; [6],> 625 nM
"CCOCCCC1CCc2cc([C@H]3CC[C@](N)(COP(=O)(O)O)C3)ccc2C1 (single isomer, unassigned) [Example 696]",EC50,[1]; [4],1.2 nM
same,EC50,[3]; [6],> 1000 nM
"COc1ccccc1CC[C@@H]1CCc2cc([C@H]3CC[C@](N)(COP(=O)(O)O)C3)ccc2C1 (single isomer, unassigned) [Example 697]",EC50,[3]; [6],> 1000 nM
"COc1ccccc1CCC1CCc2cc(C3CC[C@](N)(COP(=O)(O)O)C3)ccc2C1 (single isomer, unassigned) [Example 698]",EC50,[3]; [6],> 625 nM
"COc1cccc(OCC2CCc3cc([C@@H]4CC[C@](N)(COP(=O)(O)O)C4)ccc3C2)c1 (single isomer, unassigned) [Example 701]",EC50,[3]; [6],> 1250 nM
"COc1cccc(OCC2CCc3cc([C@@H]4CC[C@](N)(COP(=O)(O)O)C4)ccc3C2)c1 (single isomer, unassigned) [Example 702]",EC50,[3]; [6],> 625 nM
"CC(C)=CCOCCO[C@@H]1CCc2cc(C3CCC(N)(COP(=O)(O)O)C3)ccc2C1 (single isomer, unassigned) [compound 580]",EC50,[1]; [7],10 to 100 nM
same,IC50,[2]; [8],10 to 100 nM
same,EC50,[3]; [9],> 625 nM
"N[C@@]1(COP(=O)(O)O)CC[C@@H](c2ccc3c(c2)CC[C@H](OCCOC2CCCCC2)C3)C1 (single isomer, unassigned) [compound 585]",EC50,[1]; [7],10 to 100 nM
same,EC50,[3]; [9],> 625 nM
COc1ccccc1CCC1CCc2cc([C@H]3CC[C@](N)(COP(=O)(O)O)C3)ccc2C1 (stereo partly drawn) [Example 697],activity as an agonist of S1P1,[1],possessed activity as an agonist of S1P1
COc1ccccc1CC[C@@H]1CCc2cc([C@@H]3CC[C@](N)(COP(=O)(O)O)C3)ccc2C1 [Example 699],EC50,[3]; [6],> 625 nM
CCCCCCN1CCc2cc([C@H]3CC[C@](N)(COP(=O)(O)O)C3)ccc2C1=O [compound 416],IC50,[2]; [8],1000 to 10000 nM
same,EC50,[3]; [9],> 625 nM
